Measurements: US20110059114A1, “Compositions and Methods for the Treatment of Radioresistant Glioma Stem Cells” (DUKE UNIVERSITY, priority 2009, published 2011)

Tests used:
[1] = tested on: CD133+ cells enriched from medulloblastoma cell lines; conditions: cited from earlier work
T4302 CD133+ cells [2] = test: Trypan blue exclusion assay; assay type: cell-based, human; conditions: two days after 3-Gy radiation
Description: (§1) FIG. 2 is a series of graphs illustrating that γ-secretase inhibitors enhance radiation-induced cell death in glioma stem cells. (A) T4302 CD 133+ cells were pre-treated with DAPT or L685,458 for 4 hours and irradiated at 3 Gy. Percentage of dead cells was determined by trypan blue exclusion assay at 48 hours after radiation exposure. (B) T4302 CD 133+ cells were treated with GSIs ±radiation as indicated. Cells were then plated at 3000 cells per well in 96-well plates. Relative caspase 3/7 activities were determined by normalizing caspase activities to the corresponding cell titers. (C) T4302 CD 133+ cells were treated as described in FIG. 2A. 24 or 48 hours after radiation exposure, cells were labeled with FITC-conjugated Annexin V staining kit (BD Sciences) according to manufacturer's instructions and analyzed by flow cytometry. (D) T4302 CD 133+ cells were pre-treated with 2 μM DAPT for 4 hours, and were left unirradiated or irradiated at 1, 2 or 3 Gy. Relative caspase 3/7 activities were determined at 72 hours after radiation. (E) T4302 CD133+ cells were pre-treated with DAPT at indicated concentrations for 4 hours and irradiated at 3 Gy. Relative caspase activities were determined at 48 or 72 hours after radiation. *: p<0.01 by Student's t-test; #: p<0.01 by one-way ANOVA.

Notch signaling = test: Notch-responsive luciferase reporter (RBP-Jκ reporter) assay; assay type: cell-based, human; conditions: T4302 CD133+ cells; 2 μM DAPT or 0.5 μM L685,458 over night
Description: (§2) FIG. 1 is a series of graphs illustrating that γ-secretase inhibitors reduce cell growth and clonogenic survival of glioma stem cells following radiation. (A) T4302 CD133+ glioma stem cells were transfected with a Notch-responsive luciferase reporter (RBP-JK reporter) pre-mixed with the vector directing constitutive expression of Renilla luciferase. Cells were left unirradiated or irradiated at 3 Gy, and were then collected to measure luciferase activities at time points as indicated. […] The relative mRNA levels of Hes2 were determined by quantitative real-time PCR at the time points as indicated. […] Total viable cell numbers were then determined by the CellTiter-Glo Luminescent Cell Viability Assay (Promega) for the following five days. […] Cells were then plated to form neurospheres, and the surviving fractions were determined as described in methods. […] (F,G) Neurosphere formation of T3359 and T4105 CD 133+ cells treated with GSIs alone, 3-Gy radiation alone, or the combination was determined as described in FIG. 1E. *: p<0.05 by Student's t-test; #: p<0.001 by one-way ANOVA.
Luciferase assay. […] The luciferase activities were determined by the Dual-luciferase assay system (Promega).

[3] = tested on: T4302 CD133+ glioma stem cells; test: Growth curve, CellTiter-Glo Luminescent Cell Viability Assay; assay type: cell-based, human; conditions: without radiation treatment, day five; 2 μM DAPT or 0.5 μM L685,458
Description: as §2
Growth Curve, caspase 3/7 assay, and clonogenic survival assay. […] Cell number was measured for 5 days using the CellTiter-Glo assay kit (Promega, Madison, […].). […]

T4302 CD133+ cells [4] = test: Annexin V staining, flow cytometry; assay type: cell-based, human
Description: as §1

Chk1 and Chk2 = test: Immunoblotting of activating phosphorylation of Chk1 and Chk2; assay type: cell-based, human; conditions: following radiation, pretreated 24 hours
Description: (A) T4302 CD133+ cells were pretreated with DPAT or L685,458 for 24 hours prior radiation. One hour after radiation exposure, cells were harvested. The levels of activating phosphorylation of Chk1 and Chk2 were assessed by immunoblotting. (B) T4302 CD133+ cells were treated with 2 μM DAPT at 4, 24 hours prior to radiation (−24 hrs, or -4 hrs), or at 0, 4, 24 hours after radiation. Relative caspase 3/7 activities were measured 3 days after radiation exposure. *: p<0.001 by Student's t-test.
Antibodies, DNA constructs, lentiviruses and other reagents. The antibodies purchased from Cell Signaling Technology (Danvers, M A) include phosphor-S296-Chk1 (2349), total Chk1 (2345), phosphor-T68-Chk2 (2661), total Chk2 (2662), phospho-5473 Akt (#9271), total Akt (#9272), PTEN (#9556), phospho-S15-p53 (#9286), Bcl-2 (#2870), Bcl-xL (#2764), Mcl-1 (#4572), Puma (#4976). Other antibodies used in this study are p53 antibody (#sc-126, Santa Cruz Biotechnology, Santa Cruz, Calif.), and actin antibody (Millipore, Billerica, Mass.). The pcDNA3-Notch1 construct was kindly provided by Dr. Spyros Artavanis-Tsakonas, Harvard University. The coding sequences of intracellular domain of Notch1 (amino acid residues 1744-2556) was amplified by PCR and subcloned into the lentiviral vector pCDH-CMV-EF1-puro (System Biosciences, Mountain View, Calif.) through the EcoRI and NotI sites. […]

Compound	apoptosis and differentiation in CD133+ cells [1]	apoptosis in nestin-expressing cells in comparison to nestin-negative cells [1]	tumorigenic capacity of CD133+ cells [1]	dead cells (T4302 CD133+ cells [2])	Notch signaling in glioma stem cells (Notch-responsive luciferase reporter) (Notch signaling)	sham-treated cells more than GSI-treated cells (total cell number) [3]	Annexin V-positive labeled cells (T4302 CD133+ cells [4]; 24 hours following 3 Gy radiation)	Annexin V-positive labeled cells (T4302 CD133+ cells [4]; 48 hours following 3 Gy radiation)	activating phosphorylation of Chk1 or Chk2 (Chk1 and Chk2)
O=S(=O)(NC1[C@@H]2CC[C@H]1Cc1ccccc1C2)c1cccs1 (stereo partly drawn) [GSI-18]	induces apoptosis and differentiation	10 fold	impairs the tumorigenic capacity	–	–	–	–	–	–
CC(C)C[C@H](NC(=O)[C@H](Cc1ccccc1)C[C@@H](O)[C@H](Cc1ccccc1)NC(=O)OC(C)(C)C)C(=O)N[C@@H](Cc1ccccc1)C(N)=O [L685,458]	–	–	–	60%	blocked	60%	not obvious	significantly increased	Neither of DAPT or L685,458 significantly altered
